# Results as given in article PMC6266488, “Synthesis and Evaluation of Spumigin Analogues Library with Thrombin Inhibitory Activity” (Marine Drugs, 2018).
# Where two headings read alike, the source gives them in different places. Square brackets hold non-standard residues; d marks the D form. Peptide text beside a SMILES is read from it. d(hPhe) = N[C@H](CCc1ccccc1)C(=O)O; dPhLac = O=C(O)[C@H](O)Cc1ccccc1
# Assays:
# [1] = biological target: T1, Thrombin from human plasma (Homo sapiens, UniProt P00734); experiment: Enzyme amidolytic assay, thrombin inhibition (chromogenic substrate S-2238); format: biochemical; details: for Ki: Ki Thrombin, S-2238 substrate, 25 °C, Cheng and Prusoff
# T1 construct: Thrombin from human plasma; purchased Sigma; host or cells: human plasma
# Procedure: (§1) The enzyme amidolytic method for determining inhibition was based on the spectrophotometric determination of absorbance of the product formed after amide bond cleavage of a chromogenic substrate in the presence of the enzyme. Ki, which is a quantitative measure of inhibitor potency, was determined from the kinetics of substrate hydrolysis with and without the addition of the inhibitor. Measurements (spectrophotometer, BioTek Synergy H4, BioTek Instruments, Winooski, VT, USA) were performed in 96-well microtiter plates with a final volume of 200 µL. Thrombin (Thrombin from human plasma, Sigma, Taufkirchen, Germany) was tested at a final concentration of 0.5 NIH E/mL with the substrate S-2238 (H-D-Phenylalanyl-L-pipecolyl-L-arginine-p-nitroaniline dihydrochloride, Chromogenix AB, Mondal, Sweden) at 20 and 40 mM final concentration, and factor Xa (Factor Xa from bovine plasma, Chromogenix) at the final concentration of 1 mBAEE E/mL with the substrate S-2222 (N-Benzoyl-L-isoleucyl-L-glutamyl-glycyl-L-arginine-p-nitroaniline hydrochloride and its methyl ester, Chromogenix) at 100 and 200 mM final concentrations. Trypsin (Trypsin from bovine pancreas, Sigma) was assayed at a final concentration of 0.5 nkat/mL using the substrate S-2222 (Chromogenix) at 50 and 100 mM final concentrations. Inhibitors were dissolved in DMSO (concentration of stock solutions, 10 mmol/L) and diluted with distilled water to concentrations from […]. Reaction rates were measured in the presence and the absence of the inhibitor. Then, 50 µL HBSA buffer, 50 µL solution of each inhibitor concentration (or of HBSA buffer in case of measurement without inhibitor), and 50 µL of enzyme solution were pipetted into the microtiter wells. The plate was incubated for 15 min at 25 °C and then […] of chromogenic substrate was added. Absorbance at 405 nm at 25 °C was measured every 10 s. Measurements were carried out in triplicate with three concentrations of the inhibitor and two concentrations of the substrate. For every combination of concentrations, Ki was calculated from the change of absorbance in the initial, linear part of the curve according to the method of Cheng and Prusoff and the final result was given as their average value.
# [2] = biological target: T2, Trypsin from bovine pancreas (Bos taurus, UniProt P00760); experiment: Enzyme amidolytic assay, trypsin inhibition (chromogenic substrate S-2222); format: biochemical; details: for Ki: S-2222 substrate, 25 °C, Cheng and Prusoff
# T2 construct: Trypsin from bovine pancreas; purchased Sigma; host or cells: bovine pancreas
# Procedure: as §1
# [3] = biological target: T3, Factor Xa from bovine plasma (Bos taurus, UniProt P00743); experiment: Enzyme amidolytic assay, factor Xa inhibition (chromogenic substrate S-2222); format: biochemical; details: for Ki: S-2222 substrate, 25 °C, Cheng and Prusoff
# T3 construct: Factor Xa from bovine plasma; purchased Chromogenix; host or cells: bovine plasma
# Procedure: as §1, with “Thrombin (Thrombin from human plasma, Sigma, Taufkirchen, Germany) was tested at a final concentration of 0.5 NIH E/mL with the substrate S-2238 (H-D-Phenylalanyl-L-pipecolyl-L-arginine-p-nitroaniline dihydrochloride, Chromogenix AB, Mondal, Sweden) at 20 and 40 mM final concentration, and factor Xa (Factor Xa from bovine plasma, Chromogenix) at the final concentration of 1 mBAEE E/mL with the substrate S-2222 (N-Benzoyl-L-isoleucyl-L-glutamyl-glycyl-L-arginine-p-nitroaniline hydrochloride and its methyl ester, Chromogenix) at 100 and 200 mM final concentrations. Trypsin (Trypsin from bovine pancreas, Sigma) was assayed at a final concentration of 0.5 nkat/mL using the substrate S-2222 (Chromogenix) at 50 and 100 mM final concentrations.” left out, “Absorbance at 405 nm at 25 °C was measured every 10 s.” left out
# [4] = system: Thrombin; details: read-out: Thrombin Inhibition EC50; cited from earlier work
# T2 sequence (P00760 24-246): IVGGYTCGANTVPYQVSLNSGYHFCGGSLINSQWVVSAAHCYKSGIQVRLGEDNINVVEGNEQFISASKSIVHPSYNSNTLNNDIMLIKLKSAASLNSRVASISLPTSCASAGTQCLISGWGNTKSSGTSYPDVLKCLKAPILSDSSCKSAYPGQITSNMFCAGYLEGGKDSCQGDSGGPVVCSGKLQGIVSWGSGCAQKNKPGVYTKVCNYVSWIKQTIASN
# T3 sequence (P00743 41-180): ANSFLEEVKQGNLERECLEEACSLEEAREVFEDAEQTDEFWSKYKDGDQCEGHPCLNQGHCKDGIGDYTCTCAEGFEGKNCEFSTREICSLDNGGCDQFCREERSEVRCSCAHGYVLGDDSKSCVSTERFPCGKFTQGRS
# T3 sequence (P00743 234-492): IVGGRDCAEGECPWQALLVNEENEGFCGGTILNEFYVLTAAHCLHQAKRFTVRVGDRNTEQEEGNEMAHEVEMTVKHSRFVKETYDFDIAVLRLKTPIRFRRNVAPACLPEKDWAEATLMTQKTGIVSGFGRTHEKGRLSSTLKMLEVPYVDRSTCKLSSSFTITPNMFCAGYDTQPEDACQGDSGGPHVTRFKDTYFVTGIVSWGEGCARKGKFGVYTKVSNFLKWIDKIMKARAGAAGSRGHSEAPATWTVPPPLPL
SMILES,Ki [1] [µM],Ki [2] [µM],Ki ([3]; read-out: Ki Factor Xa) [µM],EC50 [4] [µM],Ki ([3]; Ki Factor Xa) [µM],IC50 [1] [µM],IC50 ([2]; in brackets in Ki Trypsin column) [µM],IC50 ([3]; in brackets in Ki Factor Xa column) [µM]
"COC(=O)[C@H](CCCNC(=N)N)NC(=O)[C@@H]1Cc2ccccc2N1C(=O)[C@@H](CC(C)C)NC(=O)[C@H](O)Cc1ccccc1 (single isomer, unassigned) [Compound 29a]",5.6 ± 0.3,4.8 ± 0.7,30 ± 2,–,–,–,–,–
C[C@H]1C[C@@H](C(=O)N(C)[C@H](CCCCN)C(=O)O)N(C(=O)[C@@H](CCc2ccc(O)cc2)NC(=O)[C@H](O)Cc2ccc(O)cc2)C1 [spumigin J],–,–,–,4.9,–,–,–,–
"COC(=O)[C@H](CCCNC(=N)N)NC(=O)[C@H]1Cc2ccccc2N1C(=O)[C@@H](CCc1ccccc1)NC(=O)[C@H](O)Cc1ccccc1 (single isomer, unassigned) [Compound 11b]",44 ± 7,2.8 ± 0.4,39 ± 6,–,–,–,–,–
C[C@H]1C[C@@H](C(=O)N[C@H](CO)CCCN=C(N)N)N(C(=O)[C@@H](CCc2ccc(O)cc2)NC(=O)[C@H](O)Cc2ccc(O)cc2)C1 [spumigin A],–,–,–,2.1,–,–,–,–
"N=C(N)NCCC[C@@H](CO)NC(=O)[C@@H]1Cc2ccccc2N1C(=O)[C@@H](Cc1ccccc1)NC(=O)[C@H](O)Cc1ccccc1 (single isomer, unassigned) [Compound 11i]",170 ± 58,50 ± 3,51 ± 4,–,–,–,–,–
"N=C(N)NCCC[C@@H](CO)NC(=O)[C@H]1Cc2ccccc2N1C(=O)[C@@H](Cc1ccccc1)NC(=O)[C@H](O)Cc1ccccc1 (single isomer, unassigned) [Compound 11c]",92 ± 20,54 ± 1,54 ± 3,–,–,–,–,–
"C[C@H]1C[C@@H](C(=O)N[C@H](CO)CCCN=C(N)N)N(C(=O)[C@@H](CCc2ccc(O)cc2)NC(=O)[C@H](O)Cc2ccc(O)cc2)C1 (racemic) [spumigin A (racemate), spumigin A]",–,–,–,7.5,–,–,–,–
"COC(=O)[C@H](CCCNC(=N)N)NC(=O)[C@@H]1Cc2ccccc2N1C(=O)[C@@H](CCc1ccccc1)NC(=O)[C@H](O)Cc1ccccc1 (single isomer, unassigned) [Compound 11h]",24 ± 8,58 ± 17,35 ± 9,–,–,–,–,–
"N=C(N)NCCC[C@@H](CO)NC(=O)[C@@H]1Cc2ccccc2N1C(=O)[C@@H](CCc1ccccc1)NC(=O)[C@H](O)Cc1ccccc1 (single isomer, unassigned) [Compound 11j]",187 ± 79,693 ± 159,–,–,41 ± 9,–,–,–
"COC(=O)[C@H](CCCNC(=N)N)NC(=O)[C@H]1Cc2ccccc2N1C(=O)[C@@H](Cc1ccccc1)NC(=O)[C@H](O)Cc1ccccc1 (single isomer, unassigned) [Compound 11a]",52 ± 10,7.9 ± 3.5,–,–,49 ± 4,–,–,–
"COC(=O)[C@H](CCCNC(=N)N)NC(=O)[C@H]1Cc2ccccc2N1C(=O)[C@@H](CC(C)C)NC(=O)[C@H](O)Cc1ccccc1 (single isomer, unassigned) [Compound 29b]",129 ± 13,134 ± 42,65 ± 2,–,–,–,–,–
"N=C(N)NCCC[C@H](NC(=O)[C@H]1Cc2ccccc2N1C(=O)[C@@H](Cc1ccccc1)NC(=O)[C@H](O)Cc1ccccc1)C(=O)O (single isomer, unassigned) [Compound 12g]",98 ± 26,0.28 ± 0.04,69 ± 1,–,–,–,–,–
"COC(=O)[C@@H](CCCNC(=N)N)NC(=O)[C@H]1CCCN1C(=O)[C@@H](CCc1ccccc1)NC(=O)[C@H](O)Cc1ccccc1 [Compound 21a, Methyl ((R)-2-((R)-2-hydroxy-3-phenylpropanamido)-4-phenylbutanoyl)-D-prolyl-D-argininate] (H-[dPhLac][d(hPhe)][dP][dR]-OMe)",3.8 ± 0.4,1.4 ± 0.2,18 ± 4,–,–,33,4.2,29
"N=C(N)NCCC[C@@H](CO)NC(=O)[C@H]1Cc2ccccc2N1C(=O)[C@@H](CCc1ccccc1)NC(=O)[C@H](O)Cc1ccccc1 (single isomer, unassigned) [Compound 11d]",11 ± 4,29 ± 2,–,–,47 ± 6,–,–,–
N=C(N)NCCCC(CO)NC(=O)C1Cc2ccccc2N1C(=O)C(CCc1ccccc1)NC(=O)C(O)Cc1ccc(O)cc1 (stereo not drawn) [Compound 11f],20 ± 3,14 ± 1,76 ± 3,–,–,–,–,–
N=C(N)NCCC[C@@H](CO)NC(=O)[C@@H]1Cc2ccccc2N1C(=O)[C@@H](CCc1ccccc1)NC(=O)[C@@H](O)Cc1ccc(O)cc1 (mixture of isomers) [Compound 11l],186 ± 48,62 ± 3,62 ± 4,–,–,–,–,–
COC(=O)C(CCCNC(=N)N)NC(=O)C1Cc2ccccc2N1C(=O)C(CCc1ccccc1)NC(=O)C(O)Cc1ccc(O)cc1 (mixture of isomers) [Compound 11k],34 ± 10,72 ± 6,57 ± 8,–,–,–,–,–
COC(=O)C(CCCNC(=N)N)NC(=O)C1Cc2ccccc2N1C(=O)C(CCc1ccccc1)NC(=O)C(O)Cc1ccc(O)cc1 (mixture of isomers) [Compound 11e],30 ± 12,3.9 ± 0.3,48 ± 5,–,–,–,–,–
"COC(=O)[C@H](CCCNC(=N)N)NC(=O)[C@@H]1Cc2ccccc2N1C(=O)[C@@H](Cc1ccccc1)NC(=O)[C@H](O)Cc1ccccc1 (single isomer, unassigned) [Compound 11g]",50 ± 9,126 ± 14,–,–,47 ± 8,–,–,–
"COC(=O)C(CCCNC(=N)N)NC(=O)C1CCCN1C(=O)C(CCc1ccccc1)NC(=O)C(O)Cc1ccc(O)cc1 [Compound 21b, Methyl ((R)-2-((R,S)-2-hydroxy-3-(4-hydroxyphenyl)propanamido)-4-phenylbutanoyl)-D-prolyl-D-argininate]",3.9 ± 0.4,0.92 ± 0.08,29 ± 5,–,–,–,–,–
